The record followed here is patent US20260138961A1, “MODULATORS OF MITOCHONDRIAL DNA REPLICATION” (Pretzel Therapeutics, Inc., priority 2022, published 2026).

Some results are limits rather than exact numbers.

The AC50 is the midpoint of the concentration-response curve, whichever way the signal moves.

The target in one experiment is T1, wild type human POLγ (POLγA:WT) (Homo sapiens, UniProt P54098).
T1 sequence (P54098 1-1239): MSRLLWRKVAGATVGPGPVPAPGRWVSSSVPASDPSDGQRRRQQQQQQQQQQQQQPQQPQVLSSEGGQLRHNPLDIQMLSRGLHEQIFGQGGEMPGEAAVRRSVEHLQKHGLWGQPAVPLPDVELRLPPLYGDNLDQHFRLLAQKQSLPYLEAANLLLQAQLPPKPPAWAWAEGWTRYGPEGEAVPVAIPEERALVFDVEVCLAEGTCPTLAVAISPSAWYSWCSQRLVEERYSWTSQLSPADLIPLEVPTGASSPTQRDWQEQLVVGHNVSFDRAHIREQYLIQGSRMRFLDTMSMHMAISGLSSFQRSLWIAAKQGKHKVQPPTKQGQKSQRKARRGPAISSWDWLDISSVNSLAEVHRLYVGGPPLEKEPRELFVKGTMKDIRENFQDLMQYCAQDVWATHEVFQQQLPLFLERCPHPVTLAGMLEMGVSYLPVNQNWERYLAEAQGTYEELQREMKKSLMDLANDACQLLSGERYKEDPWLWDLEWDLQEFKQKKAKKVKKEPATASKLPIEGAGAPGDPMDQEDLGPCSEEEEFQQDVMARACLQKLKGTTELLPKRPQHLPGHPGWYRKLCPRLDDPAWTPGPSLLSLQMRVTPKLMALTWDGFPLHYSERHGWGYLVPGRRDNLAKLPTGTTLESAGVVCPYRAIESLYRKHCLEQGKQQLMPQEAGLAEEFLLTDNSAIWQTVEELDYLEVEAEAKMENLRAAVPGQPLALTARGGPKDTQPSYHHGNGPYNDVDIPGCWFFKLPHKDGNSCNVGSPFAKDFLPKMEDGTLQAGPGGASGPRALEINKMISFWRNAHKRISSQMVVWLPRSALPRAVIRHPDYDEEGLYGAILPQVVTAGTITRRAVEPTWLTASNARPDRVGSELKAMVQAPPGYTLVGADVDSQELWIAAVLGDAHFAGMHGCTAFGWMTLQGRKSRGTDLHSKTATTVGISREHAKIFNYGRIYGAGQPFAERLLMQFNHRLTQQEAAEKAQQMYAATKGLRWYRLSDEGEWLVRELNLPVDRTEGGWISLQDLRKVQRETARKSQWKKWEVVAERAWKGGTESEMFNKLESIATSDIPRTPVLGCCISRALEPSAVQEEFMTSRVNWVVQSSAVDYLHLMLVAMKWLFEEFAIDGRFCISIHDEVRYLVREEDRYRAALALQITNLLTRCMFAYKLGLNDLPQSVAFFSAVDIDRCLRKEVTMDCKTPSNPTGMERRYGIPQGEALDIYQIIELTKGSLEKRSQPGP
T1 sequence (Q9UHN1 1-485 partner): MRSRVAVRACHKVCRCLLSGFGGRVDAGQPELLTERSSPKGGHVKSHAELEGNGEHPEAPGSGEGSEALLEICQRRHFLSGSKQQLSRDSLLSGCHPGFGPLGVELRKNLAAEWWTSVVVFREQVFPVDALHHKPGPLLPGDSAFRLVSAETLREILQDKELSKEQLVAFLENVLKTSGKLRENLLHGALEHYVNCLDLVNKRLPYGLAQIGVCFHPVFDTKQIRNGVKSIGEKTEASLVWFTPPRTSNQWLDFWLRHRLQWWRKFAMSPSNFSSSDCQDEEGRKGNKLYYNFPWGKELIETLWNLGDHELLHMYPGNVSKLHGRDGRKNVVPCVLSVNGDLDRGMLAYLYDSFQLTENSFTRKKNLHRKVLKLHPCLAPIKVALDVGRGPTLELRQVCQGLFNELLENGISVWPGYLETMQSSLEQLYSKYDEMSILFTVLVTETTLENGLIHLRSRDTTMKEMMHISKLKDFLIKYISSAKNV
Briefly: DNA polymerization assay, wild type POLγ. Format: biochemical. The settings on record: 0.1 μM dNTP, read-out: WT AC50 (μM) at 0.1 μM.
Regarding `Cc1ccc(C)c(S(=O)(=O)Nc2cccc(C(=O)N3CCSCC3C(N)=O)c2)c1` (stereo not shown) [Example 41, 4-(3-((2,5-dimethylphenyl)sulfonamido)benzoyl) thiomorpholine-3-carboxamide], the AC50 was greater than 100 µM.

With `Cc1ccc(C)c(S(=O)(=O)Nc2cccc(C(=O)N3CCCCCC3)c2)c1` [Example 32, N-(3-(azepane-1-carbonyl)phenyl)-2,5-dimethylbenzenesulfonamide], the AC50 amounted to 12 µM.

As for `COCCN(C)C(=O)c1cccc(NS(=O)(=O)c2cc(C)c(Cl)cc2C)c1` [Example 58, 3-((4-chloro-2,5-dimethylphenyl)sulfonamido)-N-(2-methoxyethyl)-N-methylbenzamide], the concentration at half-maximal activity (AC50) turned out to be 3 µM.

As for `Cc1cc(S(=O)(=O)Nc2cccc(C(=O)N[C@H](C)CO)c2)c(C)cc1Cl` [Example 51, (R)-3-((4-chloro-2,5-dimethylphenyl)sulfonamido)-N-(1-hydroxypropan-2-yl)benzamide], the half-maximal activity concentration (AC50) worked out at 6 µM.

For `CC(=O)N1CCN(C(=O)c2cccc(NS(=O)(=O)c3cc(C)ccc3C)c2)CC1` [Example 30, N-(3-(4-acetylpiperazine-1-carbonyl)phenyl)-2,5-dimethylbenzenesulfonamide], the AC50 worked out at 2 µM.

Still in this experiment, the particulars now being: 1 μM dNTP, read-out: WT AC50 (μM) at 1 μM.
Regarding `COc1ccccc1-c1nc(NS(=O)(=O)c2cc(C)c(Cl)cc2C)cs1` [Example 155, 4-chloro-N-(2-(2-methoxyphenyl)thiazol-4-yl)-2,5-dimethylbenzenesulfonamide], the AC50 worked out at 0.4 µM.

Still in this experiment, the particulars now being: 100 μM dNTP, read-out: WT AC50 (μM) at 100 μM.
In the case of `Cc1cc(S(=O)(=O)Nc2cccc(C(=O)N3CCC[C@H]3C(C)C)c2)c(C)cc1Cl` [Example 67, (S)-4-chloro-N-(3-(2-isopropylpyrrolidine-1-carbonyl)phenyl)-2,5-dimethylbenzenesulfonamide], the AC50 is greater than 10 µM.

Turning to `Cc1cc(-c2cccc(NS(=O)(=O)c3cc(C)c(Cl)cc3C)c2)n[nH]1` [Example 66, 4-chloro-2,5-dimethyl-N-(3-(5-methyl-1H-pyrazol-3-yl)phenyl)benzenesulfonamide], the half-maximal activity concentration (AC50) turned out to be 0.5 µM.

Take `Cc1cc(S(=O)(=O)Nc2csc(-c3ccccn3)n2)c(C)cc1Cl` [Example 173, 4-chloro-2,5-dimethyl-N-(2-(pyridin-2-yl)thiazol-4-yl)benzenesulfonamide]: the AC50 amounted to 0.2 µM.

In the case of `Cc1csc(-c2cccc(NS(=O)(=O)c3cc(C)c(Cl)cc3C)c2)n1` [Example 20, 4-chloro-2,5-dimethyl-N-(3-(4-methylthiazol-2-yl)phenyl)benzenesulfonamide], the concentration at half-maximal activity (AC50) was 0.3 µM.

In the case of `Cc1cc(S(=O)(=O)Nc2cccc(-c3cc[nH]n3)c2)c(C)cc1Cl` [Example 68, N-(3-(1H-pyrazol-3-yl)phenyl)-4-chloro-2,5-dimethylbenzenesulfonamide], the concentration at half-maximal activity (AC50) amounted to 0.2 µM.

With `Cc1cc(S(=O)(=O)Nc2csc(C(=O)N3CCCC3)n2)c(C)cc1Cl` [Example 166, 4-chloro-2,5-dimethyl-N-(2-(pyrrolidine-1-carbonyl)thiazol-4-yl)benzenesulfonamide], the half-maximal activity concentration (AC50) worked out at 2 µM.

For `Cc1cc2cc(NS(=O)(=O)c3cc(C)c(Cl)cc3C)ccc2[nH]1` [Example 184, 4-chloro-2,5-dimethyl-N-(2-methyl-1H-indol-5-yl)benzenesulfonamide], the AC50 was greater than 100 µM.

On to `Cc1cc(S(=O)(=O)Nc2nc(-c3ccccc3)n(C)n2)c(C)cc1Cl` [Example 180, 4-chloro-2,5-dimethyl-N-(1-methyl-5-phenyl-1H-1,2,4-triazol-3-yl)benzenesulfonamide], for which the AC50 is greater than 10 µM.

For the compound `Cc1cc(S(=O)(=O)Nc2cn(-c3ccccc3)cn2)c(C)cc1Cl` [Example 169, 4-chloro-2,5-dimethyl-N-(1-phenyl-1H-imidazol-4-yl)benzenesulfonamide], the half-maximal activity concentration (AC50) is greater than 10 µM.

Regarding `Cc1cc(S(=O)(=O)Nc2ccc3ccn(C(C)C)c3c2)c(C)cc1Cl` [Example 69, 4-chloro-N-(1-isopropyl-1H-indol-6-yl)-2,5-dimethylbenzenesulfonamide], the AC50 was 1 µM.

For the compound `Cc1cc(S(=O)(=O)Nc2csc(-c3ccncc3)n2)c(C)cc1Cl` [Example 176, 4-chloro-2,5-dimethyl-N-(2-(pyridin-4-yl)thiazol-4-yl)benzenesulfonamide], the AC50 was greater than 100 µM.

As for `Cc1cc(S(=O)(=O)Nc2csc(C(=O)N3CCC[C@@H]3C)n2)c(C)cc1Cl` [Example 175, (S)-4-chloro-2,5-dimethyl-N-(2-(2-methylpyrrolidine-1-carbonyl)thiazol-4-yl)benzenesulfonamide], the AC50 is 3 µM.

In the case of `Cc1cc(S(=O)(=O)Nc2csc(C3CCOCC3)n2)c(C)cc1Cl` [Example 167, 4-chloro-2,5-dimethyl-N-(2-(tetrahydro-2H-pyran-4-yl)thiazol-4-yl)benzenesulfonamide], the concentration at half-maximal activity (AC50) is 4 µM.

For the compound `Cc1cc(S(=O)(=O)Nc2cnn(-c3ccccc3)n2)c(C)cc1Cl` [Example 171, 4-chloro-2,5-dimethyl-N-(2-phenyl-2H-1,2,3-triazol-4-yl)benzenesulfonamide], the AC50 came out at 5 µM.

In the case of `Cc1cc(S(=O)(=O)Nc2csc(C(=O)N3CCC[C@H]3C)n2)c(C)cc1Cl` [Example 174, (R)-4-chloro-2,5-dimethyl-N-(2-(2-methylpyrrolidine-1-carbonyl)thiazol-4-yl)benzenesulfonamide], the half-maximal activity concentration (AC50) is 0.1 µM.

For `Cc1cc(S(=O)(=O)Nc2csc(C(=O)N(CC(N)=O)C3CCCCC3)n2)c(C)cc1Cl` [Example 179, N-(2-amino-2-oxoethyl)-4-((4-chloro-2,5-dimethylphenyl)sulfonamido)-N-cyclohexylthiazole-2-carboxamide], the half-maximal activity concentration (AC50) was greater than 10 µM.

For the compound `Cc1cc(S(=O)(=O)Nc2csc(-c3ccn(C)n3)n2)c(C)cc1Cl` [Example 181, 4-chloro-2,5-dimethyl-N-(2-(1-methyl-1H-pyrazol-3-yl)thiazol-4-yl)benzenesulfonamide], the AC50 was greater than 10 µM.

For `Cc1cc(S(=O)(=O)Nc2cn(C)c(-c3ccccc3)n2)c(C)cc1Cl` [Example 170, 4-chloro-2,5-dimethyl-N-(1-methyl-2-phenyl-1H-imidazol-4-yl)benzenesulfonamide], the AC50 is greater than 10 µM.

In the case of `Cc1nc2ccc(NS(=O)(=O)c3cc(C)c(Cl)cc3C)cc2o1` [Example 70, 4-chloro-2,5-dimethyl-N-(2-methylbenzo[d]oxazol-6-yl)benzenesulfonamide], the AC50 worked out at 11 µM.
